The structures appear in SMILES notation. Numbered stars: 1 amine (or outer) side, 2 acyl side, 3 side chain; on linkers, the order of the positions; unused ones are H or OH. Bridge positions count the residues as written; N and C are the ends. Square brackets hold non-standard residues; d marks the D form. Peptide text beside a SMILES is read from it. dAbu(3S-yl) = C[C@@H]([C@@H](N[*:1])C(=O)[*:2])[*:3]; pGlu = O=C1CC[C@@H](C(=O)O)N1

Series [1] is described as follows: In vitro stability in rat serum. The class given is in vitro ADME. Particulars: rat, serum, pH 7.4. As to the method:
At various time points (0, 30, 90, 270, and 1410 min), 180 µl of samples were quenched with 10 µl 10% TFA and 20 µl 100% ACN. Samples were centrifuged and kept on ice. The amount of full-length peptides in the serum was analyzed using a C12 column (C12 RP 250 × 4.60 mm column, Phenomenex) on a JASCO HPLC system and applying a gradient of 10–90% ACN in 0.1% TFA for 45 min. Peptides were detected at 280 nm. A280 areas in chromatograms of the corresponding GAL-(1–15) and M89b full-length peptide peaks were used to determine the amount of peptide left after incubation with 5% rat serum at the different time points. Peptide peaks were determined using JASCO-Borwin Chromatography software (v1.50).

The target in series [2] is T1, GAL1R (Homo sapiens, UniProt P47211).
T1 sequence (P47211 1-349): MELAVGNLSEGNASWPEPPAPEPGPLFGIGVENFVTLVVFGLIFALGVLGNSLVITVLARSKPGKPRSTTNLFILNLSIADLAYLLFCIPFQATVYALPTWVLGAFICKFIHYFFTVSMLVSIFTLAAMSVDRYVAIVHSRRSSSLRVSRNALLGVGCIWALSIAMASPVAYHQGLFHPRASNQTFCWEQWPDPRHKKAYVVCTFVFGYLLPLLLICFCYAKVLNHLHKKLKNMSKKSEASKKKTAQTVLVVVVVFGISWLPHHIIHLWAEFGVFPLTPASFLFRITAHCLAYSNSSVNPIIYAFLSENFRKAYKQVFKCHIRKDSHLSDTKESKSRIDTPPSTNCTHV
Briefly: PathHunter eXpress β-arrestin recruitment assay, GAL1R. It is filed as cell-based. On the set-up: expressed in transfected cells. Particulars: Table 3; CHO-K1 cells co-expressing GAL1R and β-arrestin 2; 10 µM to 5 nM; (average) ratio, (n) in cell = number of assays; NA = ratio above 1000. As to the method:
(§1) To evaluate the ability of lanthipeptides to recruit ß-arrestins via GAL1R or via GAL2R, we used the PathHunter® eXpress GAL1R, CHO-K1, β-arrestin GPCR Assay and the PathHunter® eXpress GAL2R, CHO-K1, β-arrestin, GPCR Assay from Eurofins-DiscoverX. The assays were performed according to the manufacturer’s instructions. Briefly, for one assay, CHO-K1 cells co-expressing GAL1R or GAL2R and β-arrestin (isoform 2) were diluted in AssayComplete™ Cell Plating Reagent, and 100 µl was seeded into each well of a 96-well plate. The plate was incubated at 37 °C, 5% CO2 in a humidified incubator. A serial 3 × dilution of the lanthipeptides in water was made (10 µM to 5 nM). After 48 h of incubation, 10 µl of the serial dilutions was applied to the cells in duplicate. The agonists were incubated for 90 min at 37 °C. Next, 55 µL of Working Detection Solution was added, and after 1 h of incubation at room temperature in the dark, the chemiluminescent signal was read with a Synergy HT Biotek reader.
A general note: Recruitment of arrestin is a read-out of receptor activation apart from second messengers.

The target of series [3] is T1, GAL1R. In words: cAMP Hunter eXpress GAL1R CHO-K1 GPCR assay (inhibition of forskolin-induced cAMP). It is filed as cell-based. On the set-up: expressed in transfected cells. Particulars: Table 3; CHO-K1 cells expressing GAL1R; 20 µM forskolin; 10 µM to 5 nM; (average) ratio, (n) in cell = number of assays; NA = ratio above 1000. As to the method:
To evaluate the ability of lanthipeptides to […] via GAL1R signaling, we used the cAMP Hunter™ eXpress GAL1R CHO-K1 GPCR Assay from Eurofins-DiscoverX. The assay was performed according to the manufacturer’s instructions. Briefly, for one assay, CHO-K1 cells expressing GAL1R were diluted in AssayComplete™ Cell Plating 2 Reagent, and 100 µl was seeded into each well of a 96-well plate. The plate was incubated at 37 °C, 5% CO2 in a humidified incubator. After 24 h of incubation, the media was aspirated, and 45 µl cell assay buffer/antibody mixture was added to all wells. […] Fifteen µl of the serial dilutions was applied in duplicates to the cells. The concentration of forskolin in the assay was 20 µM. The agonists were incubated for 30 min at 37 °C. Next, 15 µL Antibody Solution and 60 μL cAMP Working Detection Solution were added, and the plate was incubated for 1 h in the dark at room temperature. Finally, 60 μL cAMP Solution A was added and, after 3 h of incubation in the dark at room temperature, the chemiluminescent signal was read with a Synergy HT Biotek reader.

In the next series the target is T2, GAL2R (Homo sapiens, UniProt O43603).
T2 sequence (O43603 1-387): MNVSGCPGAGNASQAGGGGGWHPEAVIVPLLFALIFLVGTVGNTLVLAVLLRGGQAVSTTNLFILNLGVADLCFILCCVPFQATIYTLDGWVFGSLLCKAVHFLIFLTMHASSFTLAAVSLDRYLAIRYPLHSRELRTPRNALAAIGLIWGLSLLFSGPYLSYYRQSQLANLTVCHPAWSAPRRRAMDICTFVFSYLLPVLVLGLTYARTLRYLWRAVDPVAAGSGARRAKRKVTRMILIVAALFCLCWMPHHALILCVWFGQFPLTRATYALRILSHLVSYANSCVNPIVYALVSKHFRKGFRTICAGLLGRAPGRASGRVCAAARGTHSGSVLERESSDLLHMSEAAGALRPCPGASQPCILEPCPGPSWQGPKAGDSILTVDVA
Briefly: PathHunter eXpress β-arrestin recruitment assay, GAL2R. It is filed as cell-based. Also noted: expressed in transfected cells. Particulars: Table 3; CHO-K1 cells co-expressing GAL2R and β-arrestin 2; 10 µM to 5 nM; (average) ratio, (n) in cell = number of assays; NA = ratio above 1000. As to the method:
as §1

Series [4] concerns the target T1, GAL1R. In words: Label-free dynamic mass redistribution assay, SY5Y-R1 cells. The class given is cell-based. Also noted: expressed in transfected cells. Particulars: GAL1R-expressing SH-SY5Y cells; 1.6 nM to 5 µM. As to the method: SH-SY5Y cells stably expressing low levels of either human GAL1R (SY5Y-R1) or GAL2R (SY5Y-R2) and HEK293 cells expressing human GAL3R (HEK-R3) were seeded in EnSpire LFC-[…] well plates (Perkin Elmer) at a concentration of 12,000 cells per well and cultured overnight at 37 °C and 5% CO2. The medium was aspired, and the cells were washed four times with Hank’s balanced salt solution (HBSS) (+ calcium, + magnesium) supplemented with HEPES (20 mM), and the final volume was adjusted to 30 µl per well. The plate was allowed to equilibrate to assay temperature for 1 h in the EnSpire multimode reader (Perkin Elmer). Galanin-(1–30) (GL Biochem) was dissolved and diluted in water. […] A baseline read was first generated by taking 4 measurements before ligands were added. The plate was measured between 30 and 70 repeats, and each treatment was performed in triplicate. […] EC50 values were calculated using Prism 8.2.0 (GraphPad Software Inc.). The values are provided as means of all independent experiments.

On to `CC(C)C[C@H](NC(=O)[C@H](CC(C)C)NC(=O)[C@H](Cc1ccc(O)cc1)NC(=O)CNC(=O)[C@H](C)NC(=O)[C@H](C)NC(=O)[C@H](CC(N)=O)NC(=O)[C@H](CC(C)C)NC(=O)[C@H](CC(N)=O)NC(=O)[C@H](Cc1c[nH]c2ccccc12)NC(=O)[C@@H]1CCC(=O)N1)C(=O)N[C@@H](C)C(=O)N[C@H]1C(=O)N[C@@H](Cc2c[nH]cn2)C(=O)N[C@@H](C)C(=O)N[C@H](C(=O)NCC(=O)O)CS[C@H]1C` [Variant M89b, G1pE-T3N-S6A-G12A-methyllanthionine[13–16]-galanin-(1–17)] ([pGlu]WNLNAAGYLLA[dAbu(3S-yl)]HACG-OH; thioether 13-16; C-terminus assumed), for which, in series [1], the half-life at 10 µM was above 24 h; the metabolised at 23.5 h, 10 µM was found to be 40%; the amount remaining at 23.5 h, 10 µM was around 60%. Besides, the “EC50 ratios to Gal-(1-15), GAL1R ß-Arrestin” value at GAL1R [2] is “NA (3) (NA is not active; ratios above 1000 were considered to be not active)”. Moreover, the “EC50 ratios to Gal-(1-15), GAL1R cAMP” value at GAL1R [3] is reported as “NA (3) (NA is not active; ratios above 1000 were considered to be not active)”. On GAL2R, the “EC50 ratios to Gal-(1-15), GAL2R ß-Arrestin” value is recorded as 1.7 (3). Further, at GAL1R [4], the “Stimulation of GAL1R, DMR in SY5YR1 cells” value is recorded as “stimulate GAL2R only, not GAL1R”.

Usually half-life stands for the time needed for the level to fall by half in the phase considered. By share remaining is commonly meant the share of the starting amount still present when the sample was taken. A low value points to more turnover.
